Test results taken from PMC11650737, “Developing MYC Degraders Bearing the Von Hippel–Lindau Ligand to Target the “Undruggable” MYC” (ACS Pharmacology & Translational Science, 2024).
Where “and” joins values, the source holds several entries; their conditions need not be identical. Identical values can stand only once.

What was measured:
[1] = tested on: PC3 cells; assay: Cell viability (MTT) assay, PC3; type: cell-based, human; details: Homo sapiens, PC-3, 72 h, read-out: IC50 (antiproliferative effect)
Method: (§1) The antiproliferative activity of the synthesized compounds was tested in cell viability assays optimally set up for various cancer cell lines (results are depicted in Table 2, n = 3, average IC50 (μM) ± SD).
(§2) Cells were plated at a density of 5 × 10^3 cells per well on 96-well plates. After 24 h of incubation (37 °C, 5% CO2), the cell medium was removed, and compounds were added at selected concentrations (0.1–100 μM), followed by incubation for 72 h. Control cells were treated with 0.4% DMSO medium to match the conditions in the wells where drugs were added. After 72 h, the medium was removed, and the 3-(4,5-dimethylthiazol-2-yl)-2,5-diphenyltetrazolium bromide (MTT) solution (0.3 mg/mL in PBS) was added to cells for 3 h under no light conditions. The MTT solution was removed, and the formazan crystals were dissolved in 100 μL of DMSO. The optical density was measured at 570 nm with a reference wavelength of 690 nm using an absorbance microplate reader (SpectraMax 190, Molecular Devices, Sunnyvale, CA, USA). The half-maximal inhibitory concentration (IC50) was calculated based on a four-parameter logistic equation, generating a cell viability curve, using GraphPad Prism 6.01 (GraphPad Software, Inc.). Two concentrations of an established drug, Docetaxel (100 nM and 1 nM), were used in each experiment as a positive control. The resulting absorbance values were used instead of IC50 calculation. Each point was the result of three independent experiments performed in triplicate.

[2] = tested on: various cancer cell lines; assay: Cell viability (MTT) assay, cell line not singled out; type: cell-based; details: Homo sapiens, 72 h, summary over cancer cell lines (breast and prostate), read-out: IC50 (antiproliferative activity)
Method: as §1
as §2, with “Two concentrations of an established drug, Docetaxel (100 nM and 1 nM), were used in each experiment as a positive control.” left out, “Each point was the result of three independent experiments performed in triplicate.” left out

[3] = tested on: PC3 cells; assay: Cell uptake / intracellular concentration by LC-MS/MS, PC3; type: in vitro ADME, human; details: PC3, 24 h incubation with 10 μM
Method: Therefore, in order to better comprehend the observed activities of our degraders, following incubation of each compound with cells, the intracellular concentrations of the synthesized derivatives were evaluated in different cancer cell lines, as described previously.[28],[29] SKBR3, PC3, or A549 cells were incubated with PROTACs (at a 10 μΜ concentration) for selected time points, respectively. Upon sample treatment, compounds were extracted and analyzed by LC-MS/MS. Table 1 presents the percentage of the molecule that enters the cells after 24 h incubation at the 10 μM concentration. […] The small molecule MYCi361, used as a binding domain component of MYC, was also evaluated in the cell uptake assay (Table 1).
Cells were plated in 24-well plates at a density of 2 × 10^5 cells/well. 24 h after seeding, cells were incubated with each PROTAC (10 μΜ) for certain time points (1 h, 4 h, 8 h, and 24 h). The incubations were terminated at the selected time points by removing the medium and washing the cells twice with 1 mL cold PBS (1×) in each well in order to remove unbound PROTAC. Subsequently, the cells were lysed by adding a cold solution of ACN:H2O (3:2) and scraping off the cell monolayer. This process was done in two steps: first, 200 μL of ACN:H2O was added, the cells were scraped, and the cell lysate was collected. The second step involved the addition of an extra 100 μL of ACN:H2O, scraping, and collection of the remaining lysate. Samples were subsequently vortexed, sonicated, and centrifuged for 10 min at 13 000 rpm. The supernatants were collected, evaporated for 1 h at 55 °C, and stored at −20 °C until the day of analysis. Samples were then reconstituted in 200 μL of initial mobile phase (100% A), and the intracellular accumulation of PROTACs was determined by LC-MS/MS analysis using Warfarin as a stable internal standard and PROTAC standards for the construction of analytical standard curves.
The percentage of cell uptake was calculated as follows: [drawing 1]

[4] = tested on: SKBR3 cells; assay: Cell viability (MTT) assay, SKBR3; type: cell-based, human; details: Homo sapiens, SK-BR-3, 72 h, read-out: IC50 (antiproliferative effect)
Method: as §1, §2

[5] = target: T1, c-MYC (Homo sapiens, UniProt P01106); assay: MYC degradation in PC3 cells, Western blot; type: cell-based
T1 construct: endogenous in cells; host or cells: PC3
T1 sequence (P01106 whole entry): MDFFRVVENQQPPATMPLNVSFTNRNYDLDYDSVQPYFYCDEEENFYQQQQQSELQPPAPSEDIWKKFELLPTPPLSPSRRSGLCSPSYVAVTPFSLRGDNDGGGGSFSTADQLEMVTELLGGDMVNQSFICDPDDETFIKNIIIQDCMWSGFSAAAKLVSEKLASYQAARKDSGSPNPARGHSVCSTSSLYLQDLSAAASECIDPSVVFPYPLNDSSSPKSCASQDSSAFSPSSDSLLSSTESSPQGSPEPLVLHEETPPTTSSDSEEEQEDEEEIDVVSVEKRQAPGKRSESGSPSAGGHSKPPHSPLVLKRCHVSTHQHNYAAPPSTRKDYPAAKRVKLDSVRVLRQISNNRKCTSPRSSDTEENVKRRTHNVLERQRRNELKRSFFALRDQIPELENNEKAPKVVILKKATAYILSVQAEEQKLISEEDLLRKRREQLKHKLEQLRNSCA
Method: The ability of novel compounds to induce MYC degradation in the PC3 cell line was evaluated via a Western blot-based assay. […] A PROTAC that effectively degrades bromodomain and extra-terminal (BET) family proteins, with indirect action on MYC levels, BETd-260, was also included in these experiments as a positive control. BETd-260 was tested at a lower concentration (1 μΜ) due to its high potency.[26]
PC3 cells were used for the determination of MYC levels after treatment with the PROTACs under study. Cells (at a density of 250 000 per well) were seeded in 6-well plates for 24 h until 60% confluence. During the 24-h incubation period, cells were treated with the tested compounds (10 μΜ) and BETd-260 (1 μΜ) that was used as a positive control. For rescue experiments, cells were pretreated with the inhibitor MG-132 for 2 h, and then, the medium was removed, followed by the addition of the selected compound. After the 24-h incubation period, a cell lysis protocol was performed. The medium was removed, and the cells were rinsed with cold PBS. Lysis was induced using RIPA lysis buffer (50 mM Tris-HCl at pH 7.5, 150 mM NaCl, 5 mM Na2EDTA, 1 mM EGTA, 0.1% SDS, 1% NP-40, 0.5% sodium deoxycholate, 8 mM sodium fluoride, and 1 mM sodium orthovanadate) and protease inhibitor cocktail (Roche, UK). Total protein concentration in lysate samples was determined via performance of the Bradford assay in bovine serum albumin (BSA). Standard and unknown samples were preformulated in Coomassie blue G-250 assay reagent (Thermo Fisher Scientific, MA, USA), followed by a readout at 595 nm. Separation of the protein isolated from PC3 lysates, respectively (10 μg), with NuPAGE sample reducing agent and NuPAGE LDS sample buffer (Invitrogen, UK), was achieved via SDS-PAGE electrophoresis at 110 V for 2 h, prior to overnight transfer to the polyvinylidene difluoride (PVDF) membrane. The membranes were then blocked in 5% nonfat dry milk in Tris-buffered saline with 0.1% Tween-20 (TBST-T) for 1 h at room temperature.
Detection of MYC in PC3 cells was accomplished via immunoblot of the POI with the indicated monoclonal antibody (Cell Signaling Technology, MA, USA, catalog number #5605) at 1:1000 in TBST at […] overnight. The secondary anti-rabbit peroxidase-conjugate antibody (Cell Signaling Technology, MA, USA, catalog number #7074) was further added at 1:2000 dilution, followed by 1-h incubation at room temperature. Chemiluminescent visualization of the MYC protein bands was performed after the addition of Immobilon Crescendo Western HRP substrate (Sigma-Aldrich, Munich, Germany). For normalization of MYC concentration, GAPDH was labeled using the specific rabbit monoclonal antibody (Cell Signaling Technology, MA, USA, catalog number #5174) at 1:20000 in 5% nonfat dry milk. Protein bands were quantified with the ImageJ software.

IC50 [1] [µM] | IC50 [2] [µM] | Uptake by cells [3] | IC50 [4] [µM] | dose dependence of MYC degradation ([5]; 1–20 μΜ, 24 h) | c-MYC degradation after short treatment ([5]; 10 μΜ, 3 h) | MYC degradation (MYC levels by Western blot) ([5]; 10 μΜ, 24 h) | MYC levels after pretreatment with proteasome inhibitor MG-132 ([5]; MG-132 10 μΜ 2 h, then compound 10 μΜ 24 h, versus control group) | SMILES
18 ± 7 | 13 to 18 | 19% and 19 ± 4% | 15 ± 4 |  |  |  |  | Cc1ncsc1-c1ccc(CNC(=O)[C@@H]2C[C@@H](O)CN2C(=O)[C@@H](NC(=O)CCC(=O)NCCCOc2ccc(-c3cc(C(F)(F)F)nn3C)c(O)c2-c2cc(C(F)(F)F)cc(C(F)(F)F)c2)C(C)(C)C)cc1 [CSI86]
13 ± 7 | 13 to 18 | 13% and 13 ± 3% | 14 ± 2 | dose-dependent manner | effectively mediated c-MYC degradation | significantly active | no reduction in MYC levels | Cc1ncsc1-c1ccc(CNC(=O)[C@@H]2C[C@@H](O)CN2C(=O)[C@@H](NC(=O)CCCC(=O)NCCCOc2ccc(-c3cc(C(F)(F)F)nn3C)c(O)c2-c2cc(C(F)(F)F)cc(C(F)(F)F)c2)C(C)(C)C)cc1 [CSI107]
25 ± 2 |  |  |  |  |  | No particular effect |  | Cc1ncsc1-c1ccc(CNC(=O)[C@@H]2C[C@@H](O)CN2C(=O)[C@@H](NC(=O)COCCOCC(=O)NCCCOc2ccc(-c3cc(C(F)(F)F)nn3C)c(O)c2-c2cc(C(F)(F)F)cc(C(F)(F)F)c2)C(C)(C)C)cc1 [CSI135]
